Assay results: US20100184807A1, “Methods to inhibit tumor cell growth by using proton pump inhibitors” (Bio-Quant, Inc., priority 2008, published 2010)

Tests used:
Experiment in all cases: MTT tumor cell growth assay
Format in all cases: cell-based
786-O (kidney cancer) = conditions: 786-O cells, lansoprazole 1-100 μM, 48 hours
Experimental: (§1) In one study, adherent cells were plated approximately 16-24 hours before the day of the experiment in 180 μl growth media. On the day of the experiment, the plated adherent cells were analyzed and counted and suspension cells were plated in 180 μl growth media. 10× lansoprazole compounds and vehicle was prepared. The 10× lansoprazole compounds were prepared by diluting lansoprazole to final concentrations of 100 μM, 30 μM, 10 μM, 3 μM, and 1 μM. A vehicle was prepared by preparing a solution of PBS, equivalent to the volume used for 10 μM lansoprazole wherein the 1× solution constitutes ˜0.06% PBS. 10 μl of the various 10× lansoprazole solutions and the vehicle were added to the cells. The cells were incubated at 37° C., 5% CO2 for 48 hours. The media was then aspirated. The cell suspension was then spun at 1500 RPM for 10 minutes. The media was slowly removed. 200 μl of MTT solution was added to each well with a concentration of 0.863 mg/ml MTT in the growth media. The cells were incubated at 37° C., 5% CO2 for 4 hours and the medium is then aspirated. The plate containing the cell suspension was then spun at 1500 RPM for 10 minutes. The media was slowly removed using a multichannel pipettor. 100 μl of DMSO was then added to each well. The cells were incubated at 37° C., 5% CO2 for 5 minutes and the absorbance was obtained at 560 nm using a Dynex Opsys MR plate reader. The cells used for this procedure were the following cell lines: IGROV1 (ovarian cancer); OVCAR 8 (ovarian cancer); ES-2 (ovarian cancer); CAOV3 (ovarian cancer); OVCAR5 (ovarian cancer); SUDHL4 (lymphoma); RPMI8226 (myeloma); RPMI6666 (Hodgkin's lymphoma); NC37 (lymphoma); GDM-1 (leukemia); MC/CAR (prostate cancer); DU-145 (prostate cancer), J45-01 (leukemia), MOLT3 (leukemia), HUT78, J-gamma-1 (leukemia), MCF7 […], COL0205 (colon cancer), HL60 CLONE 15 (leukemia), T47D (breast cancer), P116 (intestinal cancer), KU812 (leukemia), SW620 (colon cancer), MK92-M1 (lymphoma), MV-4-11 (leukemia), HS578T (breast cancer), HT29 (colon cancer), HCT 116 (colon cancer), CAKI-1 (kidney cancer), A549 (lung cancer), H460 (lung cancer), A3 (colon cancer), MDA-MB231 […], MALME 3M (melanoma), RXF393 (kidney cancer), RS4.11 (leukemia), PC3 (prostate cancer), OVCAR3 (ovarian cancer), MDA-MB435 (melanoma), HUT102 (lymphoma), HL60 (leukemia), CCRF-CEM (leukemia), HUT78 (lymphoma), 786-O (kidney cancer), ACHN (kidney cancer), A498 (kidney cancer), H226 (lung cancer), H522 (lung cancer), HOP92 (lung cancer), SNB 19 (brain cancer), OVCAR4 (ovarian cancer), H9 (lymphoma), UO-31 (kidney cancer), HH (lymphoma), DAUDI (leukemia), LOXIMVI (melanoma), NAMALWA (lymphoma), EKVX (lung cancer), DOHH2 (lymphoma), SNB75 (brain cancer), SKMEL28 (melanoma), SKMEL5 (melanoma), SKMEL2 (melanoma), M14 (melanoma), UACC 257 (melanoma), H332M (lung cancer), KM12 (colon cancer), HCC2998 (colon cancer), G401 (kidney cancer), RS1184 (lymphoma), MC116 (leukemia), MOLT4 (leukemia), JM1 (liver cancer), HOP-62 (lung cancer), HCT-15 (colon cancer), SF-539 (brain cancer), SF295 (brain cancer), ST486 (lymphoma), U251 (brain cancer), and UACC-62 (melanoma).

CCRF-CEM (leukemia) = conditions: CCRF-CEM cells, lansoprazole 1-100 μM, 48 hours
Experimental: as §1

ES-2 (ovarian cancer) = conditions: ES-2 cells, lansoprazole 1-100 μM, 48 hours
Experimental: as §1

H460 (lung cancer) = conditions: H460 cells, lansoprazole 1-100 μM, 48 hours
Experimental: as §1

HL60 clone 15 (leukemia) = conditions: HL60 clone 15 cells, lansoprazole 1-100 μM, 48 hours
Experimental: as §1

HUT78 (lymphoma) = conditions: HUT78 cells, lansoprazole 1-100 μM, 48 hours
Experimental: as §1

J-gamma-1 (leukemia) = conditions: J-gamma-1 cells, lansoprazole 1-100 μM, 48 hours
Experimental: as §1

JMI = JMI cells, lansoprazole 1-100 μM, 48 hours
Experimental: as §1

KU812 (leukemia) = conditions: KU812 cells, lansoprazole 1-100 μM, 48 hours
Experimental: as §1

M14 (melanoma) = conditions: M14 cells, lansoprazole 1-100 μM, 48 hours
Experimental: as §1

NAMALWA (lymphoma) = conditions: NAMALWA cells, lansoprazole 1-100 μM, 48 hours
Experimental: as §1

OVCAR4 (ovarian cancer) = conditions: OVCAR4 cells, lansoprazole 1-100 μM, 48 hours
Experimental: as §1

OVCAR8 (ovarian cancer) = conditions: OVCAR8 cells, lansoprazole 1-100 μM, 48 hours
Experimental: as §1

P116 (intestinal cancer) = conditions: P116 cells, lansoprazole 1-100 μM, 48 hours
Experimental: as §1

PC3 (prostate cancer) = conditions: PC3 cells, lansoprazole 1-100 μM, 48 hours
Experimental: as §1

RS4.11 (leukemia) = conditions: RS4.11 cells, lansoprazole 1-100 μM, 48 hours
Experimental: as §1

SKMEL5 (melanoma) = conditions: SKMEL5 cells, lansoprazole 1-100 μM, 48 hours
Experimental: as §1

UO-31 (kidney cancer) = conditions: UO-31 cells, lansoprazole 1-100 μM, 48 hours
Experimental: as §1

Measured: tumor cell growth reduction

Cc1c(OCC(F)(F)F)ccnc1C[S+]([O-])c1nc2ccccc2[nH]1 (stereo not drawn) [lansoprazole]
significant tumor cell growth reduction: 786-O (kidney cancer) | CCRF-CEM (leukemia) | ES-2 (ovarian cancer) | H460 (lung cancer) | HL60 clone 15 (leukemia) | HUT78 (lymphoma) | J-gamma-1 (leukemia) | JMI | KU812 (leukemia) | M14 (melanoma) | NAMALWA (lymphoma) | OVCAR4 (ovarian cancer) | OVCAR8 (ovarian cancer) | P116 (intestinal cancer) | PC3 (prostate cancer) | RS4.11 (leukemia) | SKMEL5 (melanoma) | UO-31 (kidney cancer)
